Here are results for 20 compounds from ChEMBL document CHEMBL4476867, “Hydroxy formamide derivatives and their use” (2016).

Test [1] has as its target T1, Bone morphogenetic protein 1 (Homo sapiens, UniProt P13497).
T1 sequence (P13497 whole entry): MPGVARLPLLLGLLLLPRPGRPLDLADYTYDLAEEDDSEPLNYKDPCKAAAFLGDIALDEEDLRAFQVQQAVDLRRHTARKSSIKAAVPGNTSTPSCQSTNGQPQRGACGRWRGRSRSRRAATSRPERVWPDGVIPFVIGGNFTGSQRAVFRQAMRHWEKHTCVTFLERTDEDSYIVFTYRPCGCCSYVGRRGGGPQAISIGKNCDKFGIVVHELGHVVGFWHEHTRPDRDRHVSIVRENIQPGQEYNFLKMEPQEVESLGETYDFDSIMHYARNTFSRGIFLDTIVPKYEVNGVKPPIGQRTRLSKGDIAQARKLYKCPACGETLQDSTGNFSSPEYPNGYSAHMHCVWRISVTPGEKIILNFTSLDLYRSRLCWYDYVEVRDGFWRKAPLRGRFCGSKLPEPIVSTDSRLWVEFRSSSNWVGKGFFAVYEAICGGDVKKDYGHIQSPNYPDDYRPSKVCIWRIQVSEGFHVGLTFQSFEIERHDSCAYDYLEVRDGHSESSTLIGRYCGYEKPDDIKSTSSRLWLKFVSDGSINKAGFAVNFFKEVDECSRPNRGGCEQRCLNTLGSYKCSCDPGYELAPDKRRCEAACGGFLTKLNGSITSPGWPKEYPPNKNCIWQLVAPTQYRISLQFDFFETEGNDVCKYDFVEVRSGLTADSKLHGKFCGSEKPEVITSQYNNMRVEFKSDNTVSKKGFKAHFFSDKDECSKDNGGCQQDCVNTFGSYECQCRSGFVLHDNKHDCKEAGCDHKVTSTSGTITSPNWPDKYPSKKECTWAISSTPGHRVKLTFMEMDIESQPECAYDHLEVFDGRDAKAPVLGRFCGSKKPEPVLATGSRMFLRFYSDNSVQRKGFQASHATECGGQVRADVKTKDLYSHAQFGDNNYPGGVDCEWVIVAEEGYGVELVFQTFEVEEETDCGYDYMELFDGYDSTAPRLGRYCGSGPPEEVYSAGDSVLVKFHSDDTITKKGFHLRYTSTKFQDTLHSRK
Briefly: Inhibition of C-terminal FLAG-6x-His epitope tagged and N-terminal human RAGE signal sequence tagged human BMP1 (23 to 721 amino acids) expressed in CHO-E1 cells pre-incubated for 10 mins before promyostatin peptide substrate addition and measured after 60 mins using 0.5 nM BMP1 by FRET based assay. In kind it is cell-based.

For test [2], the target named is T1, Bone morphogenetic protein 1. Briefly: Inhibition of C-terminal FLAG-6x-His epitope tagged and N-terminal human RAGE signal sequence tagged human BMP1 (23 to 721 amino acids) expressed in CHO-E1 cells pre-incubated for 10 mins before promyostatin peptide substrate addition and measured after 30 mins using 50 nM BMP1 by FRET based assay. In kind it is cell-based.

For the next test, the target named is Tolloid-like protein 1 (Homo sapiens, UniProt O43897, I156V/N221S/V284A). Briefly: Inhibition of recombinant human TLL1 I156V/N221S/V284A mutant expressed in CHOE1A cells pre-incubated for 10 mins before promyostatin peptide substrate addition and measured after 60 mins by FRET based assay. In kind it is cell-based.
For a further test, the target named is T2, Tolloid-like protein 2 (Homo sapiens, UniProt Q9Y6L7).
T2 sequence (Q9Y6L7 whole entry): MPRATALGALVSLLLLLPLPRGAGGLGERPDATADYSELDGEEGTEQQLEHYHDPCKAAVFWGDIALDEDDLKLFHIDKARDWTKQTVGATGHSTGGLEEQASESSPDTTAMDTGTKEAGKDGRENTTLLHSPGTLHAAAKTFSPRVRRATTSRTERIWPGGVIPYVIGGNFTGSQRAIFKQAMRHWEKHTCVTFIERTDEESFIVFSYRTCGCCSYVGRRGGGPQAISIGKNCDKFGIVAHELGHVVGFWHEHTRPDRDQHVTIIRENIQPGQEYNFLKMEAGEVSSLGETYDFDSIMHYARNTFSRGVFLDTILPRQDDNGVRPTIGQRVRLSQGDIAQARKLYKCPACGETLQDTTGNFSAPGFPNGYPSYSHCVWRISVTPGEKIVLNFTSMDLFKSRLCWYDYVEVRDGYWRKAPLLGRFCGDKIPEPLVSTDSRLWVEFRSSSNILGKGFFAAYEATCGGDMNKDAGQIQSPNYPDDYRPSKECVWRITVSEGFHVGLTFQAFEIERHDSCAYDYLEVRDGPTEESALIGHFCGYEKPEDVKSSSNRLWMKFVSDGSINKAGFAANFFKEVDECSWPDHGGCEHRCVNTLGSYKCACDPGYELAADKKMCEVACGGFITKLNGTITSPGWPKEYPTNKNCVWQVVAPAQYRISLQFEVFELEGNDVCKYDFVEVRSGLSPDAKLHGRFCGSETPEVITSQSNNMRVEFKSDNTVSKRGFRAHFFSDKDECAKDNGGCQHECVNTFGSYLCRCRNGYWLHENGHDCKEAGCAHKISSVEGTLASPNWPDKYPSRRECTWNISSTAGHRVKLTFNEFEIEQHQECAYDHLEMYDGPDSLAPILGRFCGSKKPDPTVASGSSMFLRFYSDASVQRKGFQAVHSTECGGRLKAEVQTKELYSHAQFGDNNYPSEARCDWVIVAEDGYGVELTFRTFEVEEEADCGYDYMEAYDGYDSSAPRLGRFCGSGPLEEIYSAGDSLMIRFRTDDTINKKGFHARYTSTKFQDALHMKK
Briefly: Inhibition of C-terminal Avi-6x-His epitope tagged and N-terminal human RAGE signal sequence tagged recombinant human TLL2 (26 to 1015 amino acids) expressed in CHOE1A cells incubated for 60 mins with promyostatin peptide substrate by FRET based assay. In kind it is cell-based.

A short description of test [3]: Reduction in PICP levels in human cardiac fibroblasts incubated for 24 to 48 hrs by ELISA. Type of test: functional. A digest of the protocol: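 Human cardiac fibroblasts no older than passage 6 were seeded at 10,000 to 15,000 cells per well in 96-well plates and, one day later, exposed for 24 to 48 hr at 37° C to treatment in ficoll crowding EMEM with 100 μM ascorbic acid and less than 0.3% DMSO. IC50 was determined in GraphPad Prism from a log(inhibitor)-response fit of procollagen I C-terminal propeptide levels in the medium, measured by Quidel ELISA and expressed relative to untreated controls.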

Tolloid-like protein 1, sequence (O43897 148-1013 I156V/N221S/V284A limits assumed): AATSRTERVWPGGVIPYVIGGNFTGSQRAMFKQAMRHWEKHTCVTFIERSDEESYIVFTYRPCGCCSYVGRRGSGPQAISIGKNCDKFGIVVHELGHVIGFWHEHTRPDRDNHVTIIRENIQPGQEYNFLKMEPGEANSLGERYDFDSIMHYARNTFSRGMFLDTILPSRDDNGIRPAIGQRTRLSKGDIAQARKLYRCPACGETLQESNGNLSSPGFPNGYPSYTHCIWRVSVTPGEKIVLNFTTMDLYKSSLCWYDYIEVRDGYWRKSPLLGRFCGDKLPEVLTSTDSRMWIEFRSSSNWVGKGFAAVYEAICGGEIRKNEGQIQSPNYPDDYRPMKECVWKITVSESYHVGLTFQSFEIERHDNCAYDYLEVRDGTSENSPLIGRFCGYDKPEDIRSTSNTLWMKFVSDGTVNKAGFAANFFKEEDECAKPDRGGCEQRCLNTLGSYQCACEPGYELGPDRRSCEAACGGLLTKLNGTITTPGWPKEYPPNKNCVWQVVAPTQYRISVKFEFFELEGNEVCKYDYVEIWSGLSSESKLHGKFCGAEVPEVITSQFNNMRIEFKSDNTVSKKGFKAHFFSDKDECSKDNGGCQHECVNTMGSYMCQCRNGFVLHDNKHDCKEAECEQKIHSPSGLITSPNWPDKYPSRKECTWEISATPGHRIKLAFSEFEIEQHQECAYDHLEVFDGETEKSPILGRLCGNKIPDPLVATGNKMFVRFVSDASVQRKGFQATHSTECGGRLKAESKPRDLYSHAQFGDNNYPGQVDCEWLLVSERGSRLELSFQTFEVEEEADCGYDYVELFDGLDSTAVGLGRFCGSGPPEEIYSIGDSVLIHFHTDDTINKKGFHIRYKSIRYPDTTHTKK

`CCCCC[C@@H](C(=O)NCNC(=O)c1ccc(-c2cc(OCC)cc(C(=O)N(CC(=O)O)CC(=O)O)c2)o1)[C@@H](CC)N(O)C=O`: the 50% inhibitory concentration (IC50) in test [1] was less than 126 nM; in test [2], less than 200 nM; at Tolloid-like protein 1, less than 398 nM; at Tolloid-like protein 2, less than 794 nM; in test [3] it was less than 3980 nM.

Consider `CCCCC[C@@H](C(=O)NCNC(=O)c1ccc(-c2cc(O)cc(P(=O)(O)O)c2)o1)[C@@H](CC)N(O)C=O`, for which the IC50 in test [1] is less than 126 nM; in test [2], less than 200 nM; at Tolloid-like protein 1, less than 398 nM; on Tolloid-like protein 2, less than 794 nM; in test [3] it was less than 3980 nM.

For the compound `CCCCC[C@@H](C(=O)NCNC(=O)c1ccc(-c2cc(CNCP(=O)(O)O)cc(OCC)c2)o1)[C@@H](CC)N(O)C=O`, the IC50 in test [1] is less than 126 nM; in test [2], less than 200 nM; on Tolloid-like protein 1, less than 398 nM; at Tolloid-like protein 2, less than 794 nM; in test [3] it was less than 3980 nM.

As to `CCCCC[C@@H](C(=O)NCNC(=O)c1ccc(-c2ccc(C(=O)O)c(C(=O)O)c2)o1)[C@@H](CC)N(O)C=O`, the IC50 is less than 126 nM in test [1]; less than 200 nM in test [2]; less than 398 nM at Tolloid-like protein 1; less than 794 nM on Tolloid-like protein 2; less than 3980 nM in test [3].

For the compound `CCCCC[C@@H](C(=O)NCNC(=O)c1ccc(-c2ccc(CC(=O)O)cc2)o1)[C@@H](CC)N(O)C=O`, the IC50 in test [1] was less than 126 nM; in test [2], less than 200 nM; at Tolloid-like protein 1, less than 398 nM; on Tolloid-like protein 2 it was less than 794 nM; in test [3], less than 3980 nM.

Regarding `CCCCC[C@H](CN(O)C=O)C(=O)NCNC(=O)c1ccc(-c2cccc(S(N)(=O)=O)c2)o1`, the IC50 in test [1] was less than 126 nM; in test [2] it was less than 200 nM; on Tolloid-like protein 1, less than 398 nM; at Tolloid-like protein 2, less than 794 nM; in test [3], less than 3980 nM.

On to `CCCCC[C@@H](C(=O)NCNC(=O)c1ccc(-c2cccc(C(C)(C)C(=O)O)c2)o1)[C@@H](CC)N(O)C=O`, for which the 50% inhibitory concentration (IC50) in test [1] was less than 126 nM; in test [2], less than 200 nM; on Tolloid-like protein 1 it was less than 398 nM; at Tolloid-like protein 2 it was less than 794 nM; in test [3], less than 3980 nM.

`CCCCC[C@@H](C(=O)NCNC(=O)c1ccc(-c2ccc(CC(=O)O)c(OCC)c2)o1)[C@@H](CC)N(O)C=O`: the IC50 in test [1] was less than 126 nM; in test [2], less than 200 nM; on Tolloid-like protein 1, less than 398 nM; on Tolloid-like protein 2, less than 794 nM; in test [3], less than 3980 nM.

Consider `CCCCC[C@@H](C(=O)NCNC(=O)c1ccc(-c2cc(O)cc(OCC)c2)o1)[C@@H](CC)N(O)C=O`, for which the IC50 was less than 126 nM in test [1]; less than 200 nM in test [2]; less than 398 nM at Tolloid-like protein 1; less than 794 nM on Tolloid-like protein 2; less than 3980 nM in test [3].

Consider `CCCCC[C@@H](C(=O)NCNC(=O)c1ccc(-c2ccc(C(=O)O)c(OCC)c2)o1)[C@@H](CC)N(O)C=O`, for which the IC50 in test [1] is less than 126 nM; in test [2], less than 200 nM; on Tolloid-like protein 1, less than 398 nM; on Tolloid-like protein 2 it was less than 794 nM; in test [3] it was less than 3980 nM.

Consider `CCCCC[C@H](CN(O)C=O)C(=O)NCNC(=O)c1ccc(-c2cccc(OCC(F)F)c2)o1`, for which the concentration for half-maximal inhibition (IC50) in test [1] is less than 126 nM; in test [2] it was less than 200 nM; on Tolloid-like protein 1 it was less than 398 nM; on Tolloid-like protein 2, less than 794 nM; in test [3] it was less than 3980 nM.

Regarding `CCCCC[C@H](CN(O)C=O)C(=O)NCNC(=O)c1ccc(-c2cccc(C(=O)O)c2OC)o1`, the 50% inhibitory concentration (IC50) in test [1] is less than 126 nM; in test [2], less than 200 nM; at Tolloid-like protein 1 it was less than 398 nM; at Tolloid-like protein 2, less than 794 nM; in test [3], less than 3980 nM.

For the compound `CCCCC[C@@H](C(=O)NCNC(=O)c1ccc(-c2cc(OCC)cc(C(=O)NCP(=O)(O)O)c2)o1)[C@@H](CC)N(O)C=O`, the half-inhibitory concentration (IC50) in test [1] is less than 126 nM; in test [2], less than 200 nM; on Tolloid-like protein 1 it was less than 398 nM; on Tolloid-like protein 2 it was less than 794 nM; in test [3], less than 3980 nM.

Consider `CCCCC[C@H](CN(O)C=O)C(=O)NCNC(=O)c1ccc(-c2ccc(F)c(C(=O)O)c2F)o1`, for which the IC50 in test [1] is less than 126 nM; in test [2] it was less than 200 nM; at Tolloid-like protein 1 it was less than 398 nM; at Tolloid-like protein 2, less than 794 nM; in test [3], less than 3980 nM.

For the compound `CCCCC[C@@H](C(=O)NCNC(=O)c1ccc(-c2cc(OCC(=O)O)cc(P(=O)(O)O)c2)o1)[C@@H](CC)N(O)C=O`, the IC50 in test [1] is less than 126 nM; in test [2] it was less than 200 nM; at Tolloid-like protein 1 it was less than 398 nM; at Tolloid-like protein 2, less than 794 nM; in test [3], less than 3980 nM.

Take `CCCCC[C@H](CN(O)C=O)C(=O)NCNC(=O)c1ccc(-c2cc(OC)cc(OC)c2)o1`: the half-inhibitory concentration (IC50) was less than 126 nM in test [1]; less than 200 nM in test [2]; less than 398 nM on Tolloid-like protein 1; less than 794 nM on Tolloid-like protein 2; less than 3980 nM in test [3].

Consider `CCCCC[C@@H](C(=O)NCNC(=O)c1ccc(-c2ccc(C(=O)O)c(CC(=O)O)c2)o1)[C@@H](CC)N(O)C=O`, for which the 50% inhibitory concentration (IC50) in test [1] was less than 126 nM; in test [2] it was less than 200 nM; at Tolloid-like protein 1, less than 398 nM; on Tolloid-like protein 2, less than 794 nM; in test [3], less than 3980 nM.

In the case of `CCCCC[C@@H](C(=O)NCNC(=O)c1ccc(-c2ccc(C(=O)NCP(=O)(O)O)c(O)c2)o1)[C@@H](CC)N(O)C=O`, the IC50 is less than 126 nM in test [1]; less than 200 nM in test [2]; less than 398 nM on Tolloid-like protein 1; less than 794 nM at Tolloid-like protein 2; less than 3980 nM in test [3].

Regarding `CCCCC[C@@H](C(=O)NCNC(=O)c1ccc(-c2ccc(F)c(CC(=O)O)c2)o1)[C@@H](CC)N(O)C=O`, the IC50 was less than 126 nM in test [1]; less than 200 nM in test [2]; less than 398 nM on Tolloid-like protein 1; less than 794 nM on Tolloid-like protein 2; less than 3980 nM in test [3].

For the compound `CCCCC[C@H](CN(O)C=O)C(=O)NCNC(=O)c1ccc(-c2cccc(P(=O)(O)OC)c2)o1`, the 50% inhibitory concentration (IC50) is less than 126 nM in test [1]; less than 200 nM in test [2]; less than 398 nM on Tolloid-like protein 1; less than 794 nM on Tolloid-like protein 2; less than 3980 nM in test [3].

What is called IC50 is the concentration needed to halve the response being measured.
